Among the data in patent US8012998B2, “Pyrrolidine aryl-ether as NK-3 receptor antagonists” (Hoffmann—LA Roche Inc., priority 2007, dated 2011) are Ki values, retold here.

This test has as its target T1, human NK3 receptor (Homo sapiens, UniProt P29371).
T1 construct: expressed in transfected cells; host or cells: HEK293 cells (transient expression), membrane preparation
T1 sequence (P29371 1-465): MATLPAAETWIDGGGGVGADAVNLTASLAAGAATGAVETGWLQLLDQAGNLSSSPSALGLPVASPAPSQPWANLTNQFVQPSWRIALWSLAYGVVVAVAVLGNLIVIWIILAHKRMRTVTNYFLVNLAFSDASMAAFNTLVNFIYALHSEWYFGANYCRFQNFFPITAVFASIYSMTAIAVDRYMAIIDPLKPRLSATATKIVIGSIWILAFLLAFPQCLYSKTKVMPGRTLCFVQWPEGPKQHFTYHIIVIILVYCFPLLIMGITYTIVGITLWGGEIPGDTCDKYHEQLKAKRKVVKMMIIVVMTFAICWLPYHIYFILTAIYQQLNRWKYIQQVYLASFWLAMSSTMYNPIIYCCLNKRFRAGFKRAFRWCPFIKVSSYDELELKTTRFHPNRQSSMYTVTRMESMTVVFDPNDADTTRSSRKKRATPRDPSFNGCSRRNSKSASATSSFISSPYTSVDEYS
In words: [3H]SR142801 competition binding assay (hNK3 receptor binding). Conditions: [3H]SR142801 radioligand; membranes from HEK293 cells transiently expressing recombinant human NK3 receptor; Ki by Cheng-Prussoff; read-out: KiNK3 h. Put shortly: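 Competition binding with [3H]SR142801 on membranes of HEK293 cells transiently expressing human NK3, 5 μg protein/well, in Tris-HCl/MnCl2/phosphoramidon/BSA buffer pH 7.4. Nonspecific binding defined with 10 μM SB222200; filtration then scintillation counting. IC50 from Hill fit was converted to Ki by Cheng-Prusoff; duplicate, mean ± SEM.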

Regarding `C[C@H](Oc1ccc(C#N)cn1)[C@H]1CN(C(=O)c2ccc3[nH]cnc3c2)C[C@@H]1c1ccc(Cl)c(Cl)c1` (racemic) [Example 69, 6-{(SR)-1-[(3RS,4SR)-1-(1H-Benzoimidazole-5-carbonyl)-4-(3,4-dichloro-phenyl)-pyrrolidin-3-yl]-ethoxy}-nicotinonitrile], the Ki worked out at 28.9 nM.
In the case of `Cc1cc(C(=O)N2C[C@H]([C@H](C)Oc3ccc(Cl)cn3)[C@@H](c3ccc(Cl)c(F)c3)C2)cnn1` [Example 107, {(3S,4R)-3-(4-Chloro-3-fluoro-phenyl)-4-[(S)-1-(5-chloro-pyridin-2-yloxy)-ethyl]-pyrrolidin-1-yl}-(6-methyl-pyridazin-4-yl)-methanone] it was 2.6 nM; in that of `C[C@H](Oc1ccc(C(F)(F)F)cn1)[C@H]1CN(C(=O)c2ccc(C#N)nc2)C[C@@H]1c1ccc(Cl)c(Cl)c1` (racemic) [Example 56, 5-{(3SR,4RS)-3-(3,4-Dichloro-phenyl)-4-[(SR)-1-(5-trifluoromethyl-pyridin-2-yloxy)-ethyl]-pyrrolidine-1-carbonyl}-pyridine-2-carbonitrile], 4.3 nM.
In the case of `CSc1ncc(C(=O)N2C[C@@H]([C@@H](C)Oc3ccc(Cl)cn3)[C@H](c3ccc(Cl)c(Cl)c3)C2)cn1` (racemic) [Example 48, [(3SR,4RS)-3-[(RS)-1-(5-Chloro-pyridin-2-yloxy)-ethyl]-4-(3,4-dichloro-phenyl)-pyrrolidin-1-yl]-(2-methylsulfanyl-pyrimidin-5-yl)-methanone] it was 42.6 nM; in that of `C[C@@H](Oc1ccc(Cl)cn1)[C@@H]1CN(C(=O)c2ccc(CN(C)C)cc2)C[C@H]1c1ccc(Cl)c(Cl)c1` (racemic) [Example 42, [(3SR,4RS)-3-[(RS)-1-(5-Chloro-pyridin-2-yloxy)-ethyl]-4-(3,4-dichloro-phenyl)-pyrrolidin-1-yl]-(4-dimethylaminomethyl-phenyl)-methanone], 25.5 nM; in that of `C[C@H](Oc1ccc(C#N)cn1)[C@H]1CN(C(=O)c2ccc(-c3nnco3)cc2)C[C@@H]1c1ccc(Cl)c(Cl)c1` (racemic) [Example 63, 6-{(SR)-1[-(3RS,4SR)-4-(3,4-Dichloro-phenyl)-1-(4-[1,3,4]oxadiazol-2-yl-benzoyl)-pyrrolidin-3-yl]-ethoxy}-nicotinonitrile], 2.1 nM.
As for `C[C@H](Oc1ccc(C(F)(F)F)cn1)[C@H]1CN(C(=O)c2ccc(C#N)cc2)C[C@@H]1c1ccc(Cl)c(Cl)c1` (racemic) [Example 55, 4-{(3SR,4RS)-3-(3,4-Dichloro-phenyl)-4-[(SR)-1-(5-trifluoromethyl-pyridin-2-yloxy)-ethyl]-pyrrolidine-1-carbonyl}-benzonitrile], the figure is 6.5 nM.
In the case of `Cc1ncc(C(=O)N2C[C@@H]([C@@H](C)Oc3ccc(Cl)cn3)[C@@H](c3ccc(Cl)c(Cl)c3)C2)c(C)n1` (racemic) [Example 37], the Ki was found to be 31.6 nM.
As for `Cc1ncc(C(=O)N2C[C@H]([C@H](C)Oc3ccc(Cl)cn3)[C@@H](c3ccc(F)c(Cl)c3)C2)cn1` [Example 101, {(3S,4R)-3-(3-Chloro-4-fluoro-phenyl)-4-[(S)-1-(5-chloro-pyridin-2-yloxy)-ethyl]-pyrrolidin-1-yl}-(2-methyl-pyrimidin-5-yl)-methanone], the figure is 46 nM; as for `Cc1ncc(C(=O)N2C[C@H]([C@H](C)Oc3ccc(Cl)cn3)[C@@H](c3ccc(Cl)c(F)c3)C2)cn1` [Example 90, {(3S,4R)-3-(4-Chloro-3-fluoro-phenyl)-4-[(S)-1-(5-chloro-pyridin-2-yloxy)-ethyl]-pyrrolidin-1-yl}-(2-methyl-pyrimidin-5-yl)-methanone], 11 nM.
Take `C[C@H](Oc1ccc(C#N)cn1)[C@H]1CN(C(=O)c2ccc(C#N)nc2)C[C@@H]1c1ccc(Cl)c(Cl)c1` (racemic) [Example 52, 6-{(SR)-1-[(3RS,4SR)-4-(3,4-Dichloro-phenyl)-1-(6-cyano-pyridine-3-carbonyl)-pyrrolidin-3-yl]-ethoxy}-nicotinonitrile]: the Ki was determined as 5.4 nM.
In the case of `C[C@H](Oc1ccc(C#N)cn1)[C@H]1CN(C(=O)c2cncc(F)c2)C[C@@H]1c1ccc(Cl)c(Cl)c1` (racemic) [Example 74, 6-{(SR)-1-[(3RS,4SR)-4-(3,4-Dichloro-phenyl)-1-(5-fluoro-pyridine-3-carbonyl)-pyrrolidin-3-yl]-ethoxy}-nicotinonitrile] it was 18.6 nM; in that of `Cc1cc(C(=O)N2C[C@H]([C@H](C)Oc3ccc(Cl)cn3)[C@@H](c3ccc(Cl)cc3)C2)cnn1` [Example 108, {(3S,4R)-3-(4-Chloro-phenyl)-4-[(S)-1-(5-chloro-pyridin-2-yloxy)-ethyl]-pyrrolidin-1-yl}-(6-methyl-pyridazin-4-yl)-methanone], 2.8 nM.
On to `Cc1nc(-c2ccc(C(=O)N3C[C@H]([C@H](C)Oc4ccc(C#N)cn4)[C@@H](c4ccc(Cl)c(Cl)c4)C3)cc2)no1` (racemic) [Example 61, 6-((SR)-1-{(3RS,4SR)-4-(3,4-Dichloro-phenyl)-1-[4-(5-methyl-[1,2,4]oxadiazol-3-yl)-benzoyl]-pyrrolidin-3-yl}-ethoxy)-nicotinonitrile], for which the Ki came to 1.4 nM.
In the case of `COc1ccc(C(=O)N2C[C@@H]([C@@H](C)Oc3ccc(Cl)cn3)[C@H](c3ccc(Cl)c(Cl)c3)C2)cn1` (racemic) [Example 11, [(3SR,4RS)-3-[(RS)-1-(5-Chloro-pyridin-2-yloxy)-ethyl]-4-(3,4-dichloro-phenyl)-pyrrolidin-1-yl]-(6-methoxy-pyridin-3-yl)-methanone] it was 11.8 nM; in that of `Cc1cc(C(=O)N2C[C@H]([C@H](C)Oc3ccc(C#N)cn3)[C@@H](c3ccc(F)c(F)c3)C2)c(C)nn1` [Example 114, 6-{(S)-1-[(3R,4S)-4-(3,4-Difluoro-phenyl)-1-(3,6-dimethyl-pyridazine-4-carbonyl)-pyrrolidin-3-yl]-ethoxy}-nicotinonitrile], 85.4 nM.
In the case of `Cc1cc(C(=O)N2C[C@H]([C@H](C)Oc3ccc(Cl)cn3)[C@@H](c3ccc(F)cc3F)C2)cnn1` (racemic) [Example 117, [(3RS,4SR)-3-[(SR)-1-(5-Chloro-pyridin-2-yloxy)-ethyl]-4-(2,4-difluoro-phenyl)-pyrrolidin-1-yl]-(6-methyl-pyridazin-4-yl)-methanone] it was 27 nM; in that of `Cc1cc(C(=O)N2C[C@H]([C@H](C)Oc3ccc(C#N)cn3)[C@@H](c3ccc(F)c(F)c3)C2)cnn1` [Example 106, 6-{(S)-1-[(3R,4S)-4-(3,4-Difluoro-phenyl)-1-(6-methyl-pyridazine-4-carbonyl)-pyrrolidin-3-yl]-ethoxy}-nicotinonitrile], 30.9 nM.
As for `Cc1ncc(C(=O)N2C[C@H]([C@H](C)Oc3ccc(C#N)cn3)[C@@H](c3ccc(Cl)c(Cl)c3)C2)c(C)n1` (racemic) [Example 36, 6-{(SR)-1-[(3RS,4SR)-4-(3,4-Dichloro-phenyl)-1-(2,4-dimethyl-pyrimidine-5-carbonyl)-pyrrolidin-3-yl]-ethoxy}-nicotinonitrile], the figure is 84 nM; as for `C[C@@H](Oc1ccc(Cl)cn1)[C@@H]1CN(C(=O)c2ccc(S(C)(=O)=O)nc2)C[C@H]1c1ccc(Cl)c(Cl)c1` (racemic) [Example 47, [(3SR,4RS)-3-[(RS)-1-(5-Chloro-pyridin-2-yloxy)-ethyl]-4-(3,4-dichloro-phenyl)-pyrrolidin-1-yl]-(6-methanesulfonyl-pyridin-3-yl)-methanone], 12.5 nM.
Take `C#Cc1ccc(O[C@@H](C)[C@H]2CN(C(=O)c3cnnc(C)c3)C[C@@H]2c2ccc(Cl)c(Cl)c2)nc1` (racemic) [Example 110, {(3SR,4RS)-3-(3,4-Dichloro-phenyl)-4-[(SR)-1-(5-ethynyl-pyridin-2-yloxy)-ethyl]-pyrrolidin-1-yl}-(6-methyl-pyridazin-4-yl)-methanone]: the Ki was determined as 17.7 nM.
In the case of `Cc1ncc(C(=O)N2C[C@H]([C@H](C)Oc3ccc(C#N)cn3)[C@@H](c3ccc(F)c(Cl)c3)C2)cn1` [Example 102, 6-{(S)-1-[(3R,4S)-4-(3-Chloro-4-fluoro-phenyl)-1-(2-methyl-pyrimidine-5-carbonyl)-pyrrolidin-3-yl]-ethoxy}-nicotinonitrile] it was 91.4 nM; in that of `C[C@@H](Oc1ccc(Cl)cn1)[C@@H]1CN(C(=O)c2ccc(C#N)nc2)C[C@H]1c1ccc(Cl)c(Cl)c1` (racemic) [Example 35, 5-[(3SR,4RS)-3-[(RS)-1-(5-Chloro-pyridin-2-yloxy)-ethyl]-4-(3,4-dichloro-phenyl)-pyrrolidine-1-carbonyl]-pyridine-2-carbonitrile], 2 nM; in that of `C[C@H](Oc1ccc(C#N)cn1)[C@H]1CN(C(=O)c2ccc(-c3cnco3)cc2)C[C@@H]1c1ccc(Cl)c(Cl)c1` (racemic) [Example 59, 6-{(SR)-1-[(3RS,4SR)-4-(3,4-Dichloro-phenyl)-1-(4-oxazol-5-yl-benzoyl)-pyrrolidin-3-yl]-ethoxy}-nicotinonitrile], 2.1 nM.
